Source: patent publication US7585852B2, “Cobalamine derivatives useful for diagnosis and treatment of abnormal cellular proliferation” (Solidago AG, priority 2003, dated 2009)
“Also recorded” adds a separate entry of the source.

Columns and labels:
transcobalamin II (TCII) = assay: Gel-shift (gel filtration) assay of radiolabeled cyanocobalamin derivatives with transport protein TC II; assay type: binding, rabbit; conditions: for Binding to TCII (in words): gel shift assay; for TC II reactivity: radioactive labeled derivative; for Gel filtration peak of the derivative mixed with TCII: Superdex 75 column, free derivative elutes at 1.5 kDa
Procedure: To test the binding affinity of cobalamin (Cbl) derivatives to TCII, an in vitro test is carried out with partially purified TCII obtained from the blood of rabbits. Recombinant TCII produced with an E. coli expression system can also be used as a substrate.
TC II is purified by affinity chromatography on a cyanocobalamin-agarose matrix (Sigma), The gel (5 ml) is first washed with 200 ml 50 mM Tris/1 M NaCl, pH 8.0, afterwards with 200 ml 0.1 M glycine/0.1 M glucose/1 M NaCl pH 10, and again with 200 ml 50 mM Tris/1 M NaCl. […] Bound TC II is eluted with 20 ml 4.0 Mguanidine HCl/50 mM Tris pH 8.0, and in a second step with 7.5 M guanidine HCl/50 mM Tris pH 8.0. Most of the bound TC II elutes already with 4 M guanidine HCl. Probes are dialyzed extensively against H2O for 2 days at 4° C. Typical yields are 5-30 nmol/l which translates into 7.5-10 μg of TC II (MW: 50 kDa) per rabbit.
Transcobalamin II cDNA is expressed in E. coli strain FA113, a K12 derivative with double knock-out in trxB and gor genes, where the cytoplasm forms an oxidizing environment and allows disulfide formation. The transcobalamin II protein contains a PreScission protease site followed by an N-terminal histidine tag. The protein is isolated from soluble fractions of E. coli extracts using nickel chelating sepharose. Cyanocobalamin is removed from the transcobalamin II bound to the chelating column with 8 M urea, and the transcobalamin II is afterwards released by imidazole. In some of the preparations, the His-tag is removed by a specific protease.
(§1) The interaction of radiolabeled (^57Co, ^99mTc, ^188Re, ^111In) cyanocobalamin derivatives is measured by gel-shift assay. Radiolabeled cyanocobalamin (0.05 ng to 1 ng) is allowed to react with an excess of transport proteins for 15 min at room temperature. This mixture is applied to a gel-filtration column (Superdex75, Amersham Biosciencies) in the running buffer PBS and 0.1% Tween 20. Biologically active cyanocobalamin, which binds to transport proteins, shifts from a molecular weight of about 1.4 kDa to 40-70 kDa, depending on the transport protein. Titration of the binding capacity of the transport proteins is done with ^57Co-cyanocobalamin (ICN Biomedicals GmbH, Germany; 10 μCi/50 ng).

[1] = Biodistribution of radiolabeled cyanocobalamin derivatives in tumor bearing mice; assay type: in vivo, balb/c mice; conditions: for Tissue distribution: Blood / Tissue distribution: Kidney / Tissue distribution: Tumor / Tissue distribution: Liver: 24 h after i.v. injection of radioactive labeled derivative, tumor bearing mice (melanoma B16-F10), vitamin-free diet, figures use percent of injected radioactivity per gram of tissue; for Tissue distribution: Liver: in %ID/g; for Accumulation in tumor relative to blood / Accumulation in tumor relative to kidney and liver: from Table 1, 24 h after i.v. injection in mice
Procedure: For in vivo studies and for binding studies to the transport vectors, very high specific activity was demanded. Therefore, 100 μl of the labeled solution were injected to an analytical HPLC system to separate the hot from the cold vitamin derivative. The eluate fraction with the highest gamma activity (ca. 300 μl) was diluted with normal saline to a concentration of 10 μCi per animal before i.v. injection. Separation condition were: acetate buffer, XTerra RP8 column, gradient: 0% methanol (0 min), 30% methanol (15 min), 100% methanol (25 min) for the b and d-derivatives, and the TEAP system as described by Schibli et al. (Bioconjugate Chem. 2000, 343-351) for the other compounds.
For biodistribution studies with ^57Co-cyanocobalamin, 0.2 μCi/1 ng of the radiolabeled cyanocobalamin is mixed with 180 μl normal saline and injected i.v. in tumor bearing balb/c mice (syngeneic mouse melanoma B16-F10). After a specified time (5 min to 24 h), animals are sacrificed, the organs weighted and counted on a gamma counter. For biodistribution studies with ^99mTc-labeled cyanocobalamin, 10 μCi/0.5 ng of the radiolabelled cyanocobalamin is mixed with normal saline and used as before. For biodistribution with ^111In-labeled cyanocobalamin, 2 μCi/5 ng of the radiolabeled cyanocobalamin is mixed with normal saline and used as before. To study the effect of Vitamin B12 deficient food, the biodistribution of labeled cyanocobalamin is compared in mice fed with normal food with the biodistribution in mice fed with vitamin B12 deficient food for a period of 2 weeks.

[2] = target: T1, transcobalamin I (TC I; haptocorrin) (Homo sapiens, UniProt P20061); assay: Gel-shift (gel filtration) assay of radiolabeled cyanocobalamin derivatives with transport protein TC I; assay type: binding; conditions: Superdex 75 column; free derivative elutes at 1.5 kDa
T1 construct: As a source of transcobalamin I, saliva of vegetarian human subjects is used; from tissue; host or cells: human saliva (centrifuged, diluted 1:1 with PBS, sterile filtered)
T1 sequence (P20061 24-433): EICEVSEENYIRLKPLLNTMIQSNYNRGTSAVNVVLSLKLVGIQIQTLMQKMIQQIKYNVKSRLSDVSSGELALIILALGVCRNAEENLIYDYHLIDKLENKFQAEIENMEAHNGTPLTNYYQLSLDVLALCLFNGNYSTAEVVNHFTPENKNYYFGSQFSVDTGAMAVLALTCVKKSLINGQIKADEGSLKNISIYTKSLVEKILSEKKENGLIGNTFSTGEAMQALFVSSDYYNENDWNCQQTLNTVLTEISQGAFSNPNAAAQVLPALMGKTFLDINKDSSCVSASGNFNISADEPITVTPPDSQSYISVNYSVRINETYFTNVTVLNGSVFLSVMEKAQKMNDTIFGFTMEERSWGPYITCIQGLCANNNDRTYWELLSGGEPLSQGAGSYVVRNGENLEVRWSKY
Procedure: As a source of transcobalamin I, saliva of vegetarian human subjects is used. Saliva is centrifuged at 20'000 rpm 20 min at 4° C., mixed 1:1 with PBS and sterile filtered. The binding capacity of transcobalamin I is usually 10 ng/ml.
as §1

Substance	Binding to TCII (in words) (transcobalamin II (TCII))	Tissue distribution: Blood [1] [%ID/g]	Tissue distribution: Kidney [1] [%ID/g]	Tissue distribution: Tumor [1] [%ID/g]	Tissue distribution: Liver [1]	Accumulation in tumor relative to blood [1]	TC II reactivity (transcobalamin II (TCII))	Accumulation in tumor relative to kidney and liver [1]	Gel filtration peak of the derivative mixed with TCII (transcobalamin II (TCII)) [kDa]	Gel filtration peak of the derivative mixed with TCI [2] [kDa]
Cyanocobalamin-5′-phosphocolamin-His-OMe [Example 25]	bind to TCII	0.18	116	3.16	20.70		+ (they bind to TCII)			
Cyanocobalamin-b-butyl-PAPAcet [Example 5]	does bind to TCII	2.3	14.1	7.9	9.40		+ (they bind to TCII)		60	44
Cyanocobalamin-b-butyl-aminocarboxymethyl-His-OMe [Example 6]	bind to TCII						+ (they bind to TCII)			
Cyanocobalamin-b-ethyl-PAMA-OEt [Example 10]	TCII non-binders	0.1	1.36	0.73	1.45	five times or more than in blood	−	at least half the amount found in the critical organs kidney and liver		
Cyanocobalamin-b-propyl-PAMA-OEt [Example 11]	essentially a TCII-non binder; also recorded: TCII non-binders	0.09	0.39	1.61	0.44	five times or more than in blood	−	at least half the amount found in the critical organs kidney and liver	1.5	44
Cyanocobalamin-c-butyl-PAPAcet [Example 8]	bind to TCII	2.2	16.5	3.6	8.10		+ (they bind to TCII)			

Further lines, with some results ahead:

Binding to TCII (in words) (transcobalamin II (TCII))	Tissue distribution: Blood [1] [%ID/g]	Tissue distribution: Kidney [1] [%ID/g]	Tissue distribution: Tumor [1] [%ID/g]	Tissue distribution: Liver [1]	Accumulation in tumor relative to blood [1]	Substance	TC II reactivity (transcobalamin II (TCII))	Accumulation in tumor relative to kidney and liver [1]	Gel filtration peak of the derivative mixed with TCII (transcobalamin II (TCII)) [kDa]	Gel filtration peak of the derivative mixed with TCI [2] [kDa]
TCII non-binders	0.04	1.08	6.13	0.94	five times or more than in blood	Cyanocobalamin-b-butyl-PAMA-OEt [Example 12]	−	at least half the amount found in the critical organs kidney and liver		
TCII non-binders	0.25	3.54	2.9	3.90	five times or more than in blood	Cyanocobalamin-b-ethyl-Triamine [Example 22]	−	at least half the amount found in the critical organs kidney and liver		
bind to TCII	1.2	40	3	8.00		Cyanocobalamin-b-hexyl-PAMA-OEt [Example 14]	+ (they bind to TCII)			
bind to TCII	2.1	19.9	9.2	21.06		Cyanocobalamin-b-propyl-His-OMe [Example 20]	+ (they bind to TCII)			
TCII non-binders	0.06	10.4	6.8	3.90	five times or more than in blood	Cyanocobalamin-d-propyl-PAMA-OEt [Example 18]	−	at least half the amount found in the critical organs kidney and liver		
